The values that follow come from US12240838B2, “Inhibiting agents for Bruton's tyrosine kinase” (BIOGEN MA INC., priority 2019, dated 2025).

Test [1] deals with T1, BTK (Homo sapiens (Human), UniProt Q06187). The test can be described thus: In Vitro PD Assay in Human Whole Blood (pBTK assay). It counts as cell-based. Particulars: 37° C. for 30 min, 50% inhibition of ECL signal. Put shortly:
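Phospho-BTK was measured by total-BTK capture and phosphotyrosine detection in lysates of human heparinized whole blood. Vehicle samples lysed with or without phosphatase inhibitors defined the high and low controls.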

The target of test [2] is T1, BTK. The test can be described thus: In Vitro BTK Kinase Assay: BTK-POLYGAT-LS ASSAY. It counts as biochemical. Particulars: ATP 10 μM, polyGAT 100 nM, BTK 0.25 nM, 30 minutes. An outline of the steps: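 BTK (0.25 nM final) with 10 μM ATP and 100 nM polyGAT in pH 7.5 Tris buffer with MgCl2, DTT, Triton X-100 and casein; compound titrated 4-fold. Reaction 30 min, stopped with EDTA. Phosphorylation detected by TR-FRET with Tb-PY20 antibody after 45 min at room temperature; IC50 reported.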

SMILES strings stand for the structures.

T1 sequence (Q06187 whole entry): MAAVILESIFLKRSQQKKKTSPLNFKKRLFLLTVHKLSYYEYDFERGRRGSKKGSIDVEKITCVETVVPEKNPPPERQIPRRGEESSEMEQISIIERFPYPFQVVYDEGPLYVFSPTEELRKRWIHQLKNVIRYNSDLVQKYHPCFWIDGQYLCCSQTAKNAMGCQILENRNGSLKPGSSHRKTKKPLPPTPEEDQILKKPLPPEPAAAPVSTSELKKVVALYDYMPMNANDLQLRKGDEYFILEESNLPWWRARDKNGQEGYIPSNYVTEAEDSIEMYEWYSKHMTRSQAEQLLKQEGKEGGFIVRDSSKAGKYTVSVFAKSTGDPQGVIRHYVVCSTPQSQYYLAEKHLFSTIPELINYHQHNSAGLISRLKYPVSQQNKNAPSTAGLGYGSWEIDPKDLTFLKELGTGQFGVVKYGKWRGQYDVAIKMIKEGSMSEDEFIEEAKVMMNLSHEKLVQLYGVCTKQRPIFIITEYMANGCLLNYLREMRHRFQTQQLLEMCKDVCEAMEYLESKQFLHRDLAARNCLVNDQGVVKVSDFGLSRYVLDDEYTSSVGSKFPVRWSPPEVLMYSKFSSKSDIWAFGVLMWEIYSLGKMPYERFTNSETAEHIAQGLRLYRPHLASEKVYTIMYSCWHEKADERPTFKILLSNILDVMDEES

`Cc1cc(-c2ccnc(NC(=O)C3CC3)c2)ccc1CNC(=O)c1ncc(C(C)(C)C)o1` [Compound 98, 5-(tert-butyl)-N-(4-(2-(cyclopropanecarboxamido)pyridin-4-yl)-2-methylbenzyl)oxazole-2-carboxamide]: the IC50 at BTK [1] was in the range of 500 to 10000 nM; on BTK [2], 1 to 10 nM.

On to `CC(C)(C)c1nc(C(=O)N[C@@H]2CCN(CC(F)(F)F)Cc3cc(-c4ccnc(NC(=O)C5CC5)c4)ccc32)no1` [Compound 10, (R)-5-(tert-butyl)-N-(8-(2-(cyclopropanecarboxamido)pyridin-4-yl)-2-(2,2,2-trifluoroethyl)-2,3,4,5-tetrahydro-1H-benzo[c]azepin-5-yl)-1,2,4-oxadiazole-3-carboxamide], for which the values for the IC50 on BTK [1] and against BTK [2] were ≤ 100 nM and ≤ 1 nM, respectively.

Consider `CC(C)(C)c1nc(C(=O)N[C@@H]2CCCCc3cc(-c4ccnc(NC(=O)C5CC5)c4)ccc32)no1` [Compound 67, (R)-5-(tert-butyl)-N-(2-(2-(cyclopropanecarboxamido)pyridin-4-yl)-6,7,8,9-tetrahydro-5H-benzo[7]annulen-5-yl)-1,2,4-oxadiazole-3-carboxamide], for which the IC50 was ≤ 100 nM on BTK [1] and ≤ 1 nM against BTK [2].

`CC(C)(C)c1noc(C(=O)N[C@@H]2CCCCc3cc(-c4ccnc(NC(=O)[C@@H]5CC56CCC6)c4)ccc32)n1` [Compound 42, 3-(tert-butyl)-N-((R)-2-(2-((R)-spiro[2.3]hexane-1-carboxamido)pyridin-4-yl)-6,7,8,9-tetrahydro-5H-benzo[7]annulen-5-yl)-1,2,4-oxadiazole-5-carboxamide]: the results for the IC50 against BTK [1] and at BTK [2] were 500 to 10000 nM and ≤ 1 nM, respectively.

On to `C[C@@H](NC(=O)c1nc(C(C)(C)C)no1)c1ccc(-c2ccnc(NC(=O)C3CC3)c2)cc1C(F)(F)F` [Compound 79, (R)-3-(tert-butyl)-N-(1-(4-(2-(cyclopropanecarboxamido)pyridin-4-yl)-2-(trifluoromethyl)phenyl)ethyl)-1,2,4-oxadiazole-5-carboxamide], for which the IC50 on BTK [1] is 100 to 500 nM; against BTK [2], ≤ 1 nM.

Regarding `CC(C)c1cc(-c2ccnc(NC(=O)C3CC3)c2)ccc1CNC(=O)c1noc(C(C)(C)C)n1` [Compound 56, 5-(tert-butyl)-N-(4-(2-(cyclopropanecarboxamido)pyridin-4-yl)-2-isopropylbenzyl)-1,2,4-oxadiazole-3-carboxamide], the IC50 against BTK [1] was > 10000 nM; on BTK [2], 1 to 10 nM.

Take `CC(C)(C)c1noc(C(=O)N[C@@H]2CCN(CC(F)(F)F)Cc3cc(-c4ccnc(NC(=O)C5CC5)c4)ccc32)n1` [Compound 92, (R)-3-(tert-butyl)-N-(8-(2-(cyclopropanecarboxamido)pyridin-4-yl)-2-(2,2,2-trifluoroethyl)-2,3,4,5-tetrahydro-1H-benzo[c]azepin-5-yl)-1,2,4-oxadiazole-5-carboxamide]: the figures for the IC50 against BTK [1] and against BTK [2] were 100 to 500 nM and ≤ 1 nM, respectively.

For `CC(C)(C)c1nc(C(=O)NCc2ccc(-c3ccnc(NC(=O)C4CC4)c3)cc2C(C)(C)C)no1` [Compound 72], the values for the IC50 against BTK [1] and at BTK [2] were > 10000 nM and 1 to 10 nM, respectively.

Take `CC(C)(C)c1noc(C(=O)N[C@@H]2CCCCc3cc(-c4ccnc(NC(=O)[C@@H]5CC5(C)C)c4)ccc32)n1` [Compound 45, 3-(tert-butyl)-N-((R)-2-(2-((R)-2,2-dimethylcyclopropane-1-carboxamido)pyridin-4-yl)-6,7,8,9-tetrahydro-5H-benzo[7]annulen-5-yl)-1,2,4-oxadiazole-5-carboxamide]: the IC50 against BTK [1] was > 10000 nM; against BTK [2], 1 to 10 nM.

`CC(C)(C)c1noc(C(=O)N[C@@H]2CCCCc3cc(-c4ccnc(NC(=O)[C@@H]5C[C@H]5C#N)c4)ccc32)n1` [Compound 51, 3-(tert-butyl)-N-((R)-2-(2-((1R,2R)-2-cyanocyclopropane-1-carboxamido)pyridin-4-yl)-6,7,8,9-tetrahydro-5H-benzo[7]annulen-5-yl)-1,2,4-oxadiazole-5-carboxamide]: the figures for the IC50 against BTK [1] and against BTK [2] were 100 to 500 nM and ≤ 1 nM, respectively.

Regarding `Cc1cc(-c2ccnc(NC(=O)C3CC34CCC4)c2)ccc1CNC(=O)c1noc(C(C)(C)C)n1` (centres unmarked) [Compound 36], the IC50 against BTK [1] is > 10000 nM; against BTK [2] it was 1 to 10 nM.

In the case of `Cc1cc(-c2ccnc(NC(=O)[C@@H]3C[C@H]3C)c2)ccc1CNC(=O)c1noc(C(C)(C)C)n1` [Compound 6, 5-(tert-butyl)-N-(2-methyl-4-(2-((1R,2R)-2-methylcyclopropane-1-carboxamido)pyridin-4-yl)benzyl)-1,2,4-oxadiazole-3-carboxamide], the IC50 on BTK [1] was ≤ 100 nM; against BTK [2] it was ≤ 1 nM.

With `CC(C)(C)c1nc(C(=O)NCc2ccc(-c3ccnc(NC(=O)C4CC4)c3)cc2OC(F)(F)F)no1` [Compound 107, 5-(tert-butyl)-N-(4-(2-(cyclopropanecarboxamido)pyridin-4-yl)-2-(trifluoromethoxy)benzyl)-1,2,4-oxadiazole-3-carboxamide], the IC50 at BTK [1] is ≤ 100 nM; against BTK [2], ≤ 1 nM.

As for `Cc1cc(-c2ccnc(NC(=O)C3(F)CC3)c2)ccc1CNC(=O)c1noc(C(C)(C)C)n1` [Compound 82, 5-(tert-butyl)-N-(4-(2-(1-fluorocyclopropane-1-carboxamido)pyridin-4-yl)-2-methylbenzyl)-1,2,4-oxadiazole-3-carboxamide], the IC50 against BTK [1] lay within 500 to 10000 nM; on BTK [2] it was 1 to 10 nM.

Regarding `Cc1cc(-c2ccnc(NC(=O)C3CC3(C)C)c2)ccc1CNC(=O)c1noc(C(C)(C)C)n1` (centres unmarked) [Compound 48, 5-(tert-butyl)-N-(4-(2-(2,2-dimethylcyclopropane-1-carboxamido)pyridin-4-yl)-2-methylbenzyl)-1,2,4-oxadiazole-3-carboxamide], the IC50 was > 10000 nM against BTK [1] and 1 to 10 nM against BTK [2].

Regarding `CC1(c2nc(C(=O)NCc3ccc(-c4ccnc(NC(=O)C5CC5)c4)c(F)c3Cl)no2)CC1` [Compound 59, N-(2-chloro-4-(2-(cyclopropanecarboxamido)pyridin-4-yl)-3-fluorobenzyl)-5-(1-methylcyclopropyl)-1,2,4-oxadiazole-3-carboxamide], the IC50 on BTK [1] was 500 to 10000 nM; at BTK [2], ≤ 1 nM.

Take `CC(C)(C)c1noc(C(=O)N[C@@H]2CCCCc3cc(-c4ccnc(NC(=O)C5CC5)c4)ccc32)n1` [Compound 18, (R)-3-(tert-butyl)-N-(2-(2-(cyclopropanecarboxamido)pyridin-4-yl)-6,7,8,9-tetrahydro-5H-benzo[7]annulen-5-yl)-1,2,4-oxadiazole-5-carboxamide]: the IC50 against BTK [1] was ≤ 100 nM; against BTK [2], ≤ 1 nM.

On to `Cc1cc(-c2cc(NC(=O)C3CC3)ncc2F)ccc1CNC(=O)c1noc(C(C)(C)C)n1` [Compound 106, 5-(tert-butyl)-N-(4-(2-(cyclopropanecarboxamido)5-fluoropyridin-4-yl)-2-methylbenzyl)-1,2,4-oxadiazole-3-carboxamide], for which the values for the IC50 against BTK [1] and at BTK [2] were 500 to 10000 nM and ≤ 1 nM, respectively.

Consider `Cc1cc(-c2ccnc(NC(=O)[C@H]3C[C@@H]3F)c2)ccc1CNC(=O)c1noc(C(C)(C)C)n1` [Compound 37, 5-(tert-butyl)-N-(4-(2-((1R,2S)-2-fluorocyclopropane-1-carboxamido)pyridin-4-yl)-2-methylbenzyl)-1,2,4-oxadiazole-3-carboxamide], for which the IC50 against BTK [1] is 500 to 10000 nM; at BTK [2], ≤ 1 nM.

As for `Cc1cc(-c2cc(NC(=O)C3CC3)ncc2F)c(F)cc1CNC(=O)c1noc(C(C)(C)C)n1` [Compound 103, 5-(tert-butyl)-N-(4-(2-(cyclopropanecarboxamido)5-fluoropyridin-4-yl)-5-fluoro-2-methylbenzyl)-1,2,4-oxadiazole-3-carboxamide], the IC50 is 100 to 500 nM against BTK [1] and ≤ 1 nM against BTK [2].

As for `Cc1cc(-c2ccnc(NC(=O)C3CC3(F)F)c2)ccc1CNC(=O)c1noc(C(C)(C)C)n1` (centres unmarked) [Compound 49, 5-(tert-butyl)-N-(4-(2-(2,2-difluorocyclopropane-1-carboxamido)pyridin-4-yl)-2-methylbenzyl)-1,2,4-oxadiazole-3-carboxamide], the IC50 against BTK [1] is 500 to 10000 nM; on BTK [2], ≤ 1 nM.

For the molecule `CC(C)(C)c1nc(C(=O)NCc2ccc(-c3ccnc(NC(=O)C4CC4)c3)cc2C2CC2)no1` [Compound 77, 5-(tert-butyl)-N-(4-(2-(cyclopropanecarboxamido)pyridin-4-yl)-2-cyclopropylbenzyl)-1,2,4-oxadiazole-3-carboxamide], the IC50 against BTK [1] was 100 to 500 nM; on BTK [2] it was ≤ 1 nM.

For the molecule `C[C@@H](NC(=O)c1nc(C(C)(C)C)no1)c1cc(F)c(-c2ccnc(NC(=O)C3CC3)c2)cc1Cl` [Compound 70, (R)-3-(tert-butyl)-N-(1-(2-chloro-4-(2-(cyclopropanecarboxamido)pyridin-4-yl)-5-fluorophenyl)ethyl)-1,2,4-oxadiazole-5-carboxamide], the IC50 against BTK [1] was 500 to 10000 nM; on BTK [2] it was ≤ 1 nM.

Regarding `CC(C)(C)c1noc(C(=O)N[C@@H]2CCCCc3cc(-c4ccnc(NC(=O)[C@@H]5[C@@H]6COC[C@@H]65)c4)ccc32)n1` [Compound 46, N-((R)-2-(2-((1R,5S,6s)-3-oxabicyclo[3.1.0]hexane-6-carboxamido)pyridin-4-yl)-6,7,8,9-tetrahydro-5H-benzo[7]annulen-5-yl)-3-(tert-butyl)-1,2,4-oxadiazole-5-carboxamide], the IC50 is 500 to 10000 nM against BTK [1] and ≤ 1 nM on BTK [2].

`Cc1c(CNC(=O)c2cnc(C(C)(C)C)o2)ccc(-c2ccnc(NC(=O)C3CC3)c2)c1F` [Compound 32, 2-(tert-butyl)-N-(4-(2-(cyclopropanecarboxamido)pyridin-4-yl)-3-fluoro-2-methylbenzyl)oxazole-5-carboxamide]: the IC50 at BTK [1] was 500 to 10000 nM; on BTK [2] it was ≤ 1 nM.

Usually IC50 stands for the concentration at which inhibition is half-maximal.
